From ChEMBL document CHEMBL3784933, “Synthesis and antitumor evaluation of trimethoxyanilides based on 4(3H)-quinazolinone scaffolds” (2016)

Key:
Assay type in all cases: functional
NCI-H23 = assay: Cytotoxicity against human NCI-H23 cells assessed as growth inhibition at 10 uM after 48 hrs by SRB assay; conditions: NCI-H23, 48 h, read-out: GI
[1] = Cytotoxicity against human LOXIMVI cells assessed as growth inhibition at 10 uM after 48 hrs by SRB assay; conditions: LOX IMVI, read-out: GI
[2] = Cytotoxicity against human UO31 cells assessed as growth inhibition at 10 uM after 48 hrs by SRB assay; conditions: UO-31, 48 h, read-out: GI
[3] = Cytotoxicity against human SNB75 cells assessed as growth inhibition at 10 uM after 48 hrs by SRB assay; conditions: SNB-75, 48 h, read-out: GI
[4] = Cytotoxicity against human UACC62 cells assessed as growth inhibition at 10 uM after 48 hrs by SRB assay; conditions: UACC-62, 48 h, read-out: GI
EKVX = assay: Cytotoxicity against human EKVX cells assessed as growth inhibition at 10 uM after 48 hrs by SRB assay; conditions: read-out: GI
[5] = Cytotoxicity against human Hs 578T cells assessed as growth inhibition at 10 uM after 48 hrs by SRB assay; conditions: read-out: GI
K562 = assay: Cytotoxicity against human K562 cells assessed as growth inhibition at 10 uM after 48 hrs by SRB assay; conditions: K562, 48 h, read-out: GI
[6] = Cytotoxicity against human HOP92 cells assessed as growth inhibition at 10 uM after 48 hrs by SRB assay; conditions: HOP-92, 48 h, read-out: GI
[7] = Cytotoxicity against human SF268 cells assessed as growth inhibition at 10 uM after 48 hrs by SRB assay; conditions: SF-268, 48 h, read-out: GI
SK-MEL-5 = assay: Cytotoxicity against human SK-MEL-5 cells assessed as growth inhibition at 10 uM after 48 hrs by SRB assay; conditions: SK-MEL-5, 48 h, read-out: GI
T47D = assay: Cytotoxicity against human T47D cells assessed as growth inhibition at 10 uM after 48 hrs by SRB assay; conditions: read-out: GI
MDA-MB-231 = assay: Cytotoxicity against human MDA-MB-231 cells assessed as growth inhibition at 10 uM after 48 hrs by SRB assay; conditions: MDA-MB-231, 48 h, read-out: GI
[8] = Cytotoxicity against human MOLT4 cells assessed as growth inhibition at 10 uM after 48 hrs by SRB assay; conditions: MOLT-4, 48 h, read-out: GI
NCI-H522 = assay: Cytotoxicity against human NCI-H522 cells assessed as growth inhibition at 10 uM after 48 hrs by SRB assay; conditions: NCI-H522, 48 h, read-out: GI
A498 = assay: Cytotoxicity against human A498 cells assessed as growth inhibition at 10 uM after 48 hrs by SRB assay; conditions: A498, 48 h, read-out: GI
[9] = Cytotoxicity against human RPMI8226 cells assessed as growth inhibition at 10 uM after 48 hrs by SRB assay; conditions: RPMI-8226, 48 h, read-out: GI
[10] = Cytotoxicity against human Caki1 cells assessed as growth inhibition at 10 uM after 48 hrs by SRB assay; conditions: CAKI-1, 48 h, read-out: GI
SR = assay: Cytotoxicity against human SR cells assessed as growth inhibition at 10 uM after 48 hrs by SRB assay; conditions: read-out: GI
[11] = Cytotoxicity against human PC3 cells assessed as growth inhibition at 10 uM after 48 hrs by SRB assay; conditions: PC-3, 48 h, read-out: GI
A549 = assay: Cytotoxicity against human A549 cells assessed as growth inhibition at 10 uM after 48 hrs by SRB assay; conditions: A549, 48 h, read-out: GI
U-251 = assay: Cytotoxicity against human U251 cells assessed as growth inhibition at 10 uM after 48 hrs by SRB assay; conditions: U-251, 48 h, read-out: GI
[12] = Cytotoxicity against human SF295 cells assessed as growth inhibition at 10 uM after 48 hrs by SRB assay; conditions: SF-295, 48 h, read-out: GI
SN12C = assay: Cytotoxicity against human SN12C cells assessed as growth inhibition at 10 uM after 48 hrs by SRB assay; conditions: read-out: GI
[13] = Cytotoxicity against human OVCAR4 cells assessed as growth inhibition at 10 uM after 48 hrs by SRB assay; conditions: OVCAR-4, 48 h, read-out: GI
ACHN = assay: Cytotoxicity against human ACHN cells assessed as growth inhibition at 10 uM after 48 hrs by SRB assay; conditions: read-out: GI
CCRF-CEM = assay: Cytotoxicity against human CCRF-CEM cells assessed as growth inhibition at 10 uM after 48 hrs by SRB assay; conditions: read-out: GI
MCF7 = assay: Cytotoxicity against human MCF7 cells assessed as growth inhibition at 10 uM after 48 hrs by SRB assay; conditions: MCF7, 48 h, read-out: GI
[14] = Cytotoxicity against human BT549 cells assessed as growth inhibition at 10 uM after 48 hrs by SRB assay; conditions: BT-549, 48 h, read-out: GI
[15] = Cytotoxicity against human HCT116 cells assessed as growth inhibition at 10 uM after 48 hrs by SRB assay; conditions: HCT-116, 48 h, read-out: GI
786-0 = assay: Cytotoxicity against human 786-0 cells assessed as growth inhibition at 10 uM after 48 hrs by SRB assay; conditions: 786-0, 48 h, read-out: GI
[16] = Cytotoxicity against human UACC257 cells assessed as growth inhibition at 10 uM after 48 hrs by SRB assay; conditions: UACC-257, 48 h, read-out: GI
[17] = Cytotoxicity against human RXF393 cells assessed as growth inhibition at 10 uM after 48 hrs by SRB assay; conditions: RXF 393, 48 h, read-out: GI
MDA-MB-468 = assay: Cytotoxicity against human MDA-MB-468 cells assessed as growth inhibition at 10 uM after 48 hrs by SRB assay; conditions: MDA-MB-468, 48 h, read-out: GI
[18] = Cytotoxicity against human NCI-H322 cells assessed as growth inhibition at 10 uM after 48 hrs by SRB assay; conditions: NCI-H322, 48 h, read-out: GI
NCI-H226 = assay: Cytotoxicity against human NCI-H226 cells assessed as growth inhibition at 10 uM after 48 hrs by SRB assay; conditions: NCI-H226, 48 h, read-out: GI
[19] = Cytotoxicity against human HCT15 cells assessed as growth inhibition at 10 uM after 48 hrs by SRB assay; conditions: HCT-15, 48 h, read-out: GI
[20] = Cytotoxicity against human SF539 cells assessed as growth inhibition at 10 uM after 48 hrs by SRB assay; conditions: SF-539, 48 h, read-out: GI
[21] = Cytotoxicity against human SNB19 cells assessed as growth inhibition at 10 uM after 48 hrs by SRB assay; conditions: SNB-19, 48 h, read-out: GI
[22] = Cytotoxicity against human HOP62 cells assessed as growth inhibition at 10 uM after 48 hrs by SRB assay; conditions: HOP-62, 48 h, read-out: GI
Malme-3M = assay: Cytotoxicity against human MALME-3M cells assessed as growth inhibition at 10 uM after 48 hrs by SRB assay; conditions: read-out: GI
[23] = Cytotoxicity against human NCI-ADR-RES cells assessed as growth inhibition at 10 uM after 48 hrs by SRB assay; conditions: read-out: GI

Row | Compound | inhibition of growth at 10 µM [1] [%] | inhibition of growth at 10 µM [2] [%] | inhibition of growth at 10 µM [3] [%] | inhibition of growth at 10 µM [4] [%] | inhibition of growth at 10 µM (EKVX) [%] | inhibition of growth at 10 µM [5] [%] | inhibition of growth at 10 µM (K562) [%] | inhibition of growth at 10 µM [7] [%] | inhibition of growth at 10 µM (SK-MEL-5) [%] | inhibition of growth at 10 µM (T47D) [%] | inhibition of growth at 10 µM (MDA-MB-231) [%] | inhibition of growth at 10 µM (NCI-H522) [%] | inhibition of growth at 10 µM (A498) [%] | inhibition of growth at 10 µM [9] [%] | inhibition of growth at 10 µM [10] [%] | inhibition of growth at 10 µM (SR) [%] | inhibition of growth at 10 µM [11] [%] | inhibition of growth at 10 µM (A549) [%] | inhibition of growth at 10 µM [13] [%] | inhibition of growth at 10 µM (CCRF-CEM) [%] | other results
1 | COc1cc(NC(=O)CSc2nc3ccccc3c(=O)n2-c2ccc(F)cc2)cc(OC)c1OC | 10 | 42 | 10 | 19 | 13 | 10 | 14 | 10 | 11 | 23 | 24 | 19 | 72 | 14 | 12 | – | – | – | – | – | inhibition of growth at 10 µM (NCI-H23): 10%; inhibition of growth at 10 µM [6]: 43%; inhibition of growth at 10 µM [8]: 18%
2 | COc1cc2nc(SCCC(=O)Nc3cc(OC)c(OC)c(OC)c3)n(-c3ccccc3)c(=O)c2cc1OC | – | 25 | 39 | – | – | – | – | – | – | 14 | 14 | 15 | – | 25 | 12 | 13 | 18 | 14 | – | – | –
3 | COc1cc(NC(=O)CCSc2nc3ccccc3c(=O)n2-c2ccccc2)cc(OC)c1OC | 10 | 44 | – | 17 | – | – | 31 | – | – | 23 | 41 | 49 | 46 | 36 | 22 | 17 | 39 | 15 | 24 | 19 | inhibition of growth at 10 µM (U-251): 10%; inhibition of growth at 10 µM [12]: 13%; inhibition of growth at 10 µM (SN12C): 18%; inhibition of growth at 10 µM (ACHN): 18%; inhibition of growth at 10 µM [8]: 15%; inhibition of growth at 10 µM (MCF7): 16%
4 | COc1cc(NC(=O)CCSc2nc3ccc(Cl)cc3c(=O)n2-c2ccc(F)cc2)cc(OC)c1OC | 24 | 51 | 59 | 22 | – | 34 | 22 | 19 | 20 | 27 | 42 | 55 | 88 | 47 | 34 | 23 | 51 | 28 | – | 24 | inhibition of growth at 10 µM [14]: 12%; inhibition of growth at 10 µM (U-251): 16%; inhibition of growth at 10 µM [12]: 30%; inhibition of growth at 10 µM [15]: 13%; inhibition of growth at 10 µM (786-0): 19%; inhibition of growth at 10 µM [16]: 25%; inhibition of growth at 10 µM (SN12C): 18%; inhibition of growth at 10 µM [17]: 25%; inhibition of growth at 10 µM (MDA-MB-468): 17%; inhibition of growth at 10 µM [18]: 16%; inhibition of growth at 10 µM (ACHN): 21%; inhibition of growth at 10 µM (NCI-H226): 18%; inhibition of growth at 10 µM [19]: 16%; inhibition of growth at 10 µM [8]: 28%; inhibition of growth at 10 µM [20]: 10%; inhibition of growth at 10 µM [21]: 15%; inhibition of growth at 10 µM (MCF7): 21%
5 | COc1cc(NC(=O)CCSc2nc3ccc(Cl)cc3c(=O)n2-c2ccccc2)cc(OC)c1OC | – | – | 21 | – | – | – | – | – | – | – | 10 | – | 22 | – | – | 18 | – | – | 15 | – | –
6 | COc1cc2nc(SCCC(=O)Nc3cc(OC)c(OC)c(OC)c3)n(-c3ccc(F)cc3)c(=O)c2cc1OC | – | – | – | – | – | – | 11 | – | – | – | – | – | 22 | – | – | – | – | – | – | – | inhibition of growth at 10 µM (U-251): 12%; inhibition of growth at 10 µM [22]: 11%; inhibition of growth at 10 µM [6]: 13%
7 | COc1cc(NC(=O)CSc2nc3ccc(Cl)cc3c(=O)n2-c2ccccc2)cc(OC)c1OC | 10 | 50 | 29 | 25 | 24 | 19 | – | 10 | 17 | 15 | 17 | 16 | 54 | – | 17 | – | 20 | 12 | 15 | 30 | inhibition of growth at 10 µM [14]: 22%; inhibition of growth at 10 µM [12]: 13%; inhibition of growth at 10 µM [22]: 15%; inhibition of growth at 10 µM (Malme-3M): 12%; inhibition of growth at 10 µM [23]: 10%
8 | COc1cc(NC(=O)CSc2nc3ccccc3c(=O)n2-c2ccccc2)cc(OC)c1OC | – | 48 | 27 | 19 | 24 | 14 | – | – | 16 | 18 | 23 | 11 | 54 | – | 20 | – | 15 | – | 12 | 22 | inhibition of growth at 10 µM [22]: 12%; inhibition of growth at 10 µM [17]: 12%; inhibition of growth at 10 µM (ACHN): 11%; inhibition of growth at 10 µM (Malme-3M): 11%; inhibition of growth at 10 µM (NCI-H226): 23%
9 | COc1cc2nc(SCC(=O)Nc3cc(OC)c(OC)c(OC)c3)n(-c3ccc(F)cc3)c(=O)c2cc1OC | 14 | 38 | – | 18 | – | – | – | – | – | 20 | – | 15 | – | – | – | – | – | – | – | 15 | –
